Measured values as given in patent publication US10441540B2, “Liposomal lupeol acetate and the use thereof in preparing drugs for rheumatoid arthritis” (NATIONAL YANG-MING UNIVERSITY, priority 2014, dated 2019).

Tests used:
RAW 264.7 cells = test: MTT cell viability of RAW 264.7 cells; format: cell-based; details: 2.5-10 nM, 24 hours
Experimental: RAW 264.7 cells (a mouse leukaemic monocyte macrophage cell line) were treated with solutions containing liposomal lupeol acetate (10 ? 20 ? 40 ? 80 μM) and NF-kB inhibitor QNZ (2.5 ? 5 ? 7.5 ? 10 nM), respectively, for 24 hours, then the viability was analyzed by MTT method, comparing to the results of the control group.
5×10^4 RAW264.7 cells/well were seeded in 96-well culture dishes, and treated with directed concentration of liposomal lupeol acetate and QNZ for 24 hours after the 24-hr attachment. After removing the culture medium, 100 μl of 0.5 mg/ml MTT solution was added, and the cells were incubated at 37° C. for 4 hours. The mitochondrial enzyme (succinate dehydrogenase, SDH) in living cells will react with tetrazolium bromide in the MTT solution and form formazan blue-purple crystals. The MTT solution was removed and 200 μl DMSO was added to dissolve the blue-purple crystal, and then the O.D. (optical density) value was read under wavelength of 570 nm on an ELISA reader (TECAN Sunrise, USA). The relative cell viability is calculated by comparing the absorbance value of drug treated group with that of the control group (setting the value of control group as 100%).

NFATc1 = NFATc1 expression by real-time Q-PCR under RANKL induction; format: cell-based; details: NF-κB inhibitor 5 nM
Excerpt: (§1) The cells were stained with tartrate-resistant acid phosphatase (TRAP) and observed by microscopy to assure the differentiation of osteoclast after the cultivation of five days (Bar=200 μm).
Next, the real time Q-PCR is used for analyzing the change of NFATc1 (nuclear factor of activated T cell, the major factor of osteoclast proliferation and known as cytoplasmic 1) under the RANKL induction and drug treatments.

osteoclasts = test: TRAP staining of RANKL-induced osteoclast differentiation from macrophage; format: cell-based; details: 100 ng/ml RANKL, five days
Excerpt: as §1
To evaluate the effects of the liposomal lupeol acetate (Lipo-LA) of present invention on the suppression of rheumatoid arthritis, we firstly analyze the differentiation of osteoclasts from certain cells using the tartrate-resistant acid phosphatase (TRAP) staining method. The TRAP staining is used to detect the internal acid phosphatase activity of leukocytes in a blood, bone or tissue sample. Because osteoclasts contain acid phosphatase, we can use this staining method to determine the formation of osteoclast cells.
After removing the supernatant of culture, the cells are rinsed with PBS for two times, and then fixed with 3.7% paraformaldehyde for 1 hour. The fixed cells are washed with PBS. The Acid Phophatase Leukocyte kit (TRAP stain, Cat. 387-A, Sigma-Aldrich, USA) is used in the TRAP staining and the method is briefly described as follow. Before staining, the temperature of ddH2O used for adjuvant preparation is confirmed to be 37° C. The Fast Garnet GBC base and sodium nitrite solution at equal volumes are uniformly mixed for 30 seconds and incubated at room temperature for at least two minutes. […]

TNF-α = test: Immunohistochemistry of TNF-α in leg joints of CIA mice; format: in vivo, mouse; details: 100 mg/kg LA or 50 mg/kg Lipo-LA, day 43, vs RA group
Excerpt: (§2) In FIG. 8A, mice were sacrificed at the end of the animal experiment (day 43), and the legs was removed for the immunohistochemistry (IHC) of TNF-α and IL-1β and H&E staining. The arrows in H&E images indicate the position of articular cavity. There is significant accumulation of TNF-α and IL-1β appeared in the RA group.
(§3) Observing the suppressive effects of Lipo-LA on joint inflammation using immunohistochemistry (IHC). […] The legs of mouse were removed and subjected to paraffin embedding and sectioning. The sections were stained with anti-TNF-α and anti-IL-1β antibodies, respectively to assess the distribution of inflammatory cytokines.

IL-1β = test: Immunohistochemistry of IL-1β in leg joints of CIA mice; format: in vivo, mouse; details: 100 mg/kg LA or 50 mg/kg Lipo-LA, day 43, vs RA group
Excerpt: as §2, §3

[1] = system: inflammatory condition induced by carrageenan; details: Lucetti D L et al. J Inflamm 2010; cited from earlier work
rheumatoid arthritis = details: US Patent Application no. 20120177754; 100 mg/kg, 12 days needed in mice; cited from earlier work
[2] = system: collagen-induced arthritis (CIA) in DBA/1J mice; test: Collagen-induced arthritis (CIA) animal model; details: oral daily
TGF-β = TGF-β in mouse hind leg proteins, Western blotting; details: 100 mg/kg LA or 50 mg/kg Lipo-LA, day 32
Experimental: (§4) The mice were sacrificed by cervical dislocation on the 32nd day of the animal experiment. The whole leg of mouse was removed, and the leg tissue was ground by adding an appropriate amount of lysis buffer (tissue protein extraction reagent, T-PER, Pierce Protein Biology Products, IL, USA), centrifuged at 15,000 rpm for 20 minutes, and the supernatant is taken as the sample for each group.
(§5) Meanwhile, we also use Western blotting to observe the proteins extracted from mouse hind legs, and observe the expression level of immunosuppression-related proteins TGF-β and IL-10 secreted from Treg cells.

IL-10 = IL-10 in mouse hind leg proteins, Western blotting; details: 100 mg/kg LA or 50 mg/kg Lipo-LA, day 32
Experimental: as §4, §5

[3] = 100 mg/kg LA or 50 mg/kg Lipo-LA, vs RA group

Compound	cell death of RAW264.7 cells (cell viability, MTT) (RAW 264.7 cells)	expression of NFATc1 (NFATc1)	differentiation of osteoclast from macrophage (TRAP staining) (osteoclasts)	TNF-α staining (IHC) in joint (TNF-α)	IL-1β staining (IHC) in joint (IL-1β)	inflammatory condition induced by carrageenan in mice [1]	inhibiting inflammation and treatment of rheumatoid arthritis (rheumatoid arthritis)	arthritis scores (highest 16 points per mouse) [2, 3]	foot swelling [2, 3]	incidence of arthritis [2, 3]	toxic effects judged by changes in body weight of mice ([2]; 100 mg/kg LA)	level of TGF-β (TGF-β)	level of IL-10 (IL-10)
Nc1ccc2ncnc(NCCc3ccc(Oc4ccccc4)cc3)c2c1 [QNZ]	does not cause significant cell death	reduces											
Lupeol acetate [LA]			inhibitory effects	improvements	improvements	effectively mitigate	significant therapeutic effect	significantly less scores	significantly reduced	decreased incidence percentages	no toxic effects	rising trend	rising trend
